Source: patent publication US20210238173A1, “MITOGEN-ACTIVATED PROTEIN KINASE KINASE 7 INHIBITORS” (Yeda Research and Development Co. Ltd., priority 2018, published 2021)
Values joined by “and” are separate entries in the source; they are usually repeats but may differ in a detail not shown here. Identical values can stand only once. One block for each compound: values may come before it.

How the values were obtained:
MKK7 = target: T1, MKK7 (Homo sapiens, UniProt O14733); assay: In vitro kinase activity assay for MKK7 (Nanosyn); assay type: biochemical; settings: read-out: MKK7 IC50 in vitro
T1 construct: purchased Nanosyn (contract assay)
T1 sequence (O14733 1-419): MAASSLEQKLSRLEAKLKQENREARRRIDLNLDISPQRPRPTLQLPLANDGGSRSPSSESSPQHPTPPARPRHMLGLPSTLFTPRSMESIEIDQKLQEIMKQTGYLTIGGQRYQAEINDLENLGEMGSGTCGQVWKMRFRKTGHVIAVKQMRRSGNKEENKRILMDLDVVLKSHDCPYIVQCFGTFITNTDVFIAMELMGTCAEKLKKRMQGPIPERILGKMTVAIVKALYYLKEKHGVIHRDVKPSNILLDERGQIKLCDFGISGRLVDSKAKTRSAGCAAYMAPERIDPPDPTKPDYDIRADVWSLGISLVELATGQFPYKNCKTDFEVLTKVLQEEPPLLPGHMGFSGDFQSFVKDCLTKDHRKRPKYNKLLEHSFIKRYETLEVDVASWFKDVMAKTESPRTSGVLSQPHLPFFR
Protocol: Based on visual inspection of the top 500 predictions, 10 compounds were selected for synthesis and testing (see, Table 1). The “Docking rank” is given in its respective run, whereas four virtual libraries of acrylamides were docked separately, based on the amine precursor for the acrylamide (primary or secondary aliphatic amines, primary or secondary aromatic amines). In vitro kinase activity assay was carried out by Nanosyn, as described below.
In Vitro Activity Assays for MKK7 or MKK4 (Carried by Nanosyn):
Exemplary test compounds, according to some embodiments of the present invention, were diluted in DMSO to a final concentration that ranged from 10 μM to 0.0565 nM, while final concentration of DMSO in all assays was kept at 1%. Reference compound, Staurosporine, was tested in a similar manner. […] After incubation, activity of now activated JNK1 was tested in the presence of 30 μM ATP ATP for 17 h (MKK7) or 4 h (MKK4).

[1] = Metabolic stability in monkey liver microsomes; assay type: in vitro ADME
Description: (§1) A reference compound, REF1250, was used in this study: […]

[2] = Metabolic stability in rat liver microsomes; assay type: in vitro ADME; settings: for half-life: rat, liver microsomes
Description: as §1

[3] = Metabolic stability in human liver microsomes; assay type: in vitro ADME; settings: for half-life: human, liver microsomes
Description: as §1

[4] = Metabolic stability in dog liver microsomes; assay type: in vitro ADME; settings: for half-life: dog, liver microsomes
Description: as §1

[5] = Metabolic stability in mouse liver microsomes; assay type: in vitro ADME; settings: for half-life: mouse, liver microsomes
Description: as §1

IC50 (MKK7): > 10 µM
Compound: C=CC(=O)Nc1cccc2[nH]ncc12 [GO1]

IC50 (MKK7): > 10 µM
Compound: C=CC(=O)NC1CCC(c2nc(-c3ccccc3)n[nH]2)CC1 (centres unmarked) [GO2]

IC50 (MKK7): > 10 µM
Compound: C=CC(=O)N1CCC(c2c[nH]c3ncccc23)CC1 [GO6]

IC50 (MKK7): > 10 µM
Compound: C=CC(=O)NCC1CCCN(c2cc(NC)ncn2)C1 (centres unmarked) [GO8]

IC50 (MKK7): > 10 µM
Compound: C=CC(=O)N1CCOC(c2nc(CCC)n[nH]2)C1 (centres unmarked) [GO14]

IC50 (MKK7): 0.073 µM
Compound: C=CC(=O)Nc1cccc(-c2n[nH]c3c2CCC3)c1 [GO49]

% remaining @ 40 min [1]: 0% | half-life [1]: < 5 min | IC50 (MKK7): 0.004 µM | % remaining @ 40 min [2]: 0% | half-life [2]: < 5 min | % remaining @ 40 min [3]: 0% | half-life [3]: < 5 min | % remaining @ 40 min [4]: 0% | half-life [4]: < 5 min | % remaining @ 40 min [5]: 0% | half-life [5]: < 5 min
Compound: C=CC(=O)Nc1cc(C#N)cc(-c2n[nH]c3ccccc23)c1 [GO73]

IC50 (MKK7): 0.267 µM
Compound: CN(C)C/C=C/C(=O)Nc1cccc(-c2n[nH]c3ccccc23)c1 [GO74]

IC50 (MKK7): 0.812 µM
Compound: C=CC(=O)Nc1cccc(-c2n[nH]c3c(C)cccc23)c1 [GO81]

Further lines, the compound ahead of its results:

Compound: C=CC(=O)Nc1ccc(N2CCNC2=O)cc1 [GO5]
IC50 (MKK7): 0.502 µM

Compound: C=CC(=O)Nc1ccc2c(c1)C(=O)NC2 [GO7]
IC50 (MKK7): 0.873 µM

Compound: C=CC(=O)NCC1CCCN1c1cc(NC)ncn1 (centres unmarked) [GO9]
IC50 (MKK7): > 10 µM

Compound: C=CC(=O)N1CCN(CC2=NC(C)N=N2)CC1 (centres unmarked) [GO10]
IC50 (MKK7): > 10 µM

Compound: C#CCCCC(=O)N1CCc2[nH]nc(-c3cccc(NC(=O)C=C)c3)c2C1 [GO65]
IC50 (MKK7): 0.03 µM

Compound: C=CC(=O)Nc1cccc(-c2n[nH]c3cc(OC)ccc23)c1 [GO83]
% remaining @ 40 min [1]: 0% | IC50 (MKK7): 0.011 µM | % remaining @ 40 min [2]: 48% | half-life [2]: 35 min | % remaining @ 40 min [3]: 1% | half-life [3]: < 5 min | % remaining @ 40 min [4]: 0% | half-life [4]: < 5 min | % remaining @ 40 min [5]: 0% | half-life [5]: 5 min

Compound: C=CC(=O)Nc1cccc(-c2n[nH]c3c(Cl)cccc23)c1 [GO89]
% remaining @ 40 min [1]: 0% | half-life [1]: < 5 min | IC50 (MKK7): 0.047 µM | % remaining @ 40 min [2]: 1% | half-life [2]: 6 min | % remaining @ 40 min [3]: 3% | half-life [3]: 8 min | % remaining @ 40 min [4]: 0% | % remaining @ 40 min [5]: 0% | half-life [5]: < 5 min

Compound: COc1cc(OC)cc(C(C#N)(CCCN(C)CCc2ccc(OC)c(OC)c2)C(C)C)c1 (centres unmarked) [REF1250, reference compound]
% remaining @ 40 min [1]: 0% | half-life [1]: < 5 min | % remaining @ 40 min [2]: 3% and 1% | Halflife [2]: 6 min | half-life [2]: 8 min | % remaining @ 40 min [3]: 5% and 3% | half-life [3]: 9 min | % remaining @ 40 min [4]: 12% and 5% | half-life [4]: 12 min | % remaining @ 40 min [5]: 2% and 1% | Halflife [5]: 6 min | half-life [5]: 7 min
